Results as given in the supplement of paper PMC4862054.
“And” between values parts separate entries of the source, which are not always exact repeats. Identical values can stand only once.

What was measured:
[1] = tested on: CAL-85-1; details: 72 h
Method in brief: (§1)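 EC50 was fitted from dose-response curves and censored at the highest concentration tested. To build those curves, breast cancer cell lines (20 µl suspension) were seeded into 384-well plates containing compound at 5 concentrations in 10-fold steps over a compound-specific 10,000-fold range and incubated for 72 h. Readouts were CellTox Green fluorescence (485/520 nm) for cell death and then CellTiter-Glo luminescence for viability, with each plate normalised to 0.1 % DMSO and a positive kill control.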

[2] = tested on: CAL-51; details: 72 h
Method in brief: as §1

[3] = tested on: BT-549; details: 72 h
Method in brief: as §1

[4] = tested on: BT-474; details: 72 h
Method in brief: as §1

[5] = tested on: MDA-MB-468; details: 72 h
Method in brief: as §1

[6] = tested on: MDA-MB-231; details: 72 h
Method in brief: as §1

[7] = tested on: Hs578T; details: 72 h
Method in brief: as §1

[8] = tested on: HDQ-P1; details: 72 h
Method in brief: as §1

[9] = tested on: HCC1599; details: 72 h
Method in brief: as §1

[10] = tested on: CAL-120; details: 72 h
Method in brief: as §1

[11] = tested on: MDA-MB-436; details: 72 h
Method in brief: as §1

[12] = tested on: HCC1937; details: 72 h
Method in brief: as §1

[13] = tested on: SK-BR-3; details: 72 h
Method in brief: as §1

[14] = tested on: DU-4475; details: 72 h
Method in brief: as §1

[15] = tested on: MFM-223; details: 72 h
Method in brief: as §1

[16] = tested on: MDA-MB-453; details: 72 h
Method in brief: as §1

[17] = tested on: CAL-85-1; experiment: normalised response (% of control), CellTiter-Glo; higher = more viable cells (100 = DMSO, 0 = benzethonium chloride kill control); details: incubation time: 72 h
Method in brief: (§2)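 Breast cancer cell lines, seeded at 20 µl suspension per well, were incubated for 72 h in 384-well plates containing compound at 5 concentrations. These concentrations rose in 10-fold steps over a 10,000-fold range set for each compound. CellTox Green fluorescence (485/520 nm) was read, then CellTiter-Glo luminescence after 10 min at room temperature, and each plate was normalised to 0.1 % DMSO (100) and a positive kill control (0). Values are normalised signals, each at one concentration.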

[18] = tested on: HCC1143; experiment: as above; details: incubation time: 72 h
Method in brief: as §2

[19] = tested on: SK-BR-3; experiment: as above; details: incubation time: 72 h
Method in brief: as §2

[20] = tested on: MDA-MB-231; experiment: as above; details: incubation time: 72 h
Method in brief: as §2

[21] = tested on: MDA-MB-453; experiment: as above; details: incubation time: 72 h
Method in brief: as §2

[22] = tested on: Hs578T; experiment: as above; details: incubation time: 72 h
Method in brief: as §2

[23] = tested on: MCF-10A; experiment: as above; details: incubation time: 72 h
Method in brief: as §2

[24] = tested on: BT-549; experiment: as above; details: incubation time: 72 h
Method in brief: as §2

[25] = tested on: BT-474; experiment: as above; details: incubation time: 72 h
Method in brief: as §2

[26] = tested on: DU-4475; experiment: as above; details: incubation time: 72 h
Method in brief: as §2

[27] = tested on: HDQ-P1; experiment: as above; details: incubation time: 72 h
Method in brief: as §2

[28] = tested on: CAL-148; experiment: as above; details: incubation time: 72 h
Method in brief: as §2

[29] = tested on: HCC1599; experiment: as above; details: incubation time: 72 h
Method in brief: as §2

[30] = tested on: CAL-120; experiment: as above; details: incubation time: 72 h
Method in brief: as §2

[31] = tested on: MDA-MB-468; experiment: as above; details: incubation time: 72 h
Method in brief: as §2

[32] = tested on: MDA-MB-436; experiment: as above; details: incubation time: 72 h
Method in brief: as §2

[33] = tested on: MFM-223; experiment: as above; details: incubation time: 72 h
Method in brief: as §2

[34] = tested on: HCC1937; experiment: as above; details: incubation time: 72 h
Method in brief: as §2

[35] = tested on: CAL-51; experiment: normalised viability (% of control), CellTiter-Blue; higher = more viable cells (about 100 = DMSO control); details: incubation time: 72 h
Description: (§3)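 DSRT, CellTiter-Blue viability, 72 h incubation. Signal is normalised to DMSO and benzethonium chloride controls. Value is the normalised response at dose 9.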

[36] = tested on: CAL-148; experiment: as above; details: incubation time: 72 h
Description: as §3

Compound | EC50, CellTiter-Glo [1] [nM] | EC50, CellTiter-Glo [2] [nM] | EC50, CellTiter-Glo [3] [nM] | EC50, CellTiter-Glo [4] [nM] | EC50, CellTiter-Glo [5] [nM] | EC50, CellTiter-Glo [6] [nM] | EC50, CellTiter-Glo [8] [nM] | EC50, CellTiter-Glo [10] [nM] | EC50, CellTiter-Glo [11] [nM] | EC50, CellTiter-Glo [12] [nM] | EC50, CellTiter-Glo [15] [nM] | further results
C/C(=C\c1csc(C)n1)[C@@H]1C[C@@H]2O[C@]2(C)CCC[C@H](C)[C@H](O)[C@@H](C)C(=O)C(C)(C)[C@@H](O)CC(=O)N1 [Ixabepilone] | 660 | 23 | 38.2 | 808 | 31.4 | – | – | – | – | – | – | –
CN(C)C(=N)NC(=N)N [Metformin] | – | 360 | – | – | > 100000 | – | – | – | – | – | – | –
CN(Cc1cnc2nc(N)nc(N)c2n1)c1ccc(C(=O)N[C@@H](CCC(=O)O)C(=O)O)cc1 [Methotrexate] | 2020 | 19.6 | – | 7230 | – | 6840 | 12.9 | 809 | 1460 | 20.4 | – | EC50, CellTiter-Glo [7]: 29000 nM; EC50, CellTiter-Glo [9]: 17800 nM
CO[C@@H]1[C@H](N(C)C(=O)c2ccccc2)C[C@H]2O[C@]1(C)n1c3ccccc3c3c4c(c5c6ccccc6n2c5c31)C(=O)NC4 [Midostaurin] | 831 | 308 | 585 | 275 | 229 | 265 | 465 | 275 | 690 | 547 | 595 | EC50, CellTiter-Glo [13]: 634 nM; EC50, CellTiter-Glo [7]: 254 nM; EC50, CellTiter-Glo [14]: 562 nM
CO[C@@]12[C@H](COC(N)=O)C3=C(C(=O)C(C)=C(N)C3=O)N1C[C@@H]1N[C@@H]12 [Mitomycin C] | 2420 | 1140 | 1680 | – | 3860 | – | – | > 10000 | 7150 | – | – | EC50, CellTiter-Glo [13]: > 10000 nM
CC1(C)CCC(c2ccc(Cl)cc2)=C(CN2CCN(c3ccc(C(=O)NS(=O)(=O)c4ccc(N[C@H](CCN5CCOCC5)CSc5ccccc5)c(S(=O)(=O)C(F)(F)F)c4)cc3)CC2)C1 [Navitoclax] | – | 1260 | > 10000 | 1680 | 86.4 | 774 | 392 | 3900 | – | > 10000 | > 10000 | EC50, CellTiter-Glo [16]: 6680 nM; EC50, CellTiter-Glo [14]: 2990 nM
Cc1cn(-c2cc(NC(=O)c3ccc(C)c(Nc4nccc(-c5cccnc5)n4)c3)cc(C(F)(F)F)c2)cn1 [Nilotinib] | – | 32.6 | > 10000 | – | – | – | – | – | – | – | – | –
Cc1cn(-c2cc(NC(=O)c3ccc(C)c(Nc4nccc(-c5cccnc5)n4)c3)cc(C(F)(F)F)c2)cn1 [Nilotinib] (10000 nM) | – | – | – | – | – | – | – | – | – | – | – | normalised response [17]: 104%; normalised response [18]: 93%; normalised response [19]: 99.4%; normalised response [20]: 92.9%; normalised response [21]: 102%; normalised response [22]: 97.1%; normalised response [23]: 99.4%; normalised response [24]: 61.2%; normalised response [25]: 94.7%; normalised response [26]: 102%; normalised response [27]: 105%; normalised response [28]: 98%; normalised response [29]: 119%; normalised response [30]: 103%; normalised response [31]: 101%; normalised response [32]: 106%; normalised response [33]: 97.2%; normalised response [34]: 96.8%; normalised viability [35]: 103% and 100%; normalised viability [36]: 89.7% and 84.6%
CC[C@H](CO)Nc1nc(NCc2ccccc2)c2ncn(C(C)C)c2n1 [Seliciclib] | – | 595 | – | – | – | – | – | – | – | – | – | –
C=CCN(/C=C1/C(=O)O[C@H](COC)[C@@]2(C)C1=C(O)C(=O)C1=C2[C@H](OC(C)=O)C[C@]2(C)C(=O)CC[C@@H]12)CC=C [Sonolisib] | – | 390 | – | – | – | – | – | – | – | – | – | –
CC(C)n1cnc2c(NCCc3ccc(O)cc3)nc(-c3csc4ccccc34)nc21 [StemRegenin 1] | – | – | 565 | – | 9610 | – | 4790 | – | 7630 | > 10000 | 2020 | EC50, CellTiter-Glo [16]: > 10000 nM
O=C(CCCCCCC(=O)Nc1ccccc1)NO [Vorinostat] | 2320 | 2180 | 7340 | 3760 | 1200 | 3170 | 8320 | 8470 | – | 6280 | 5670 | EC50, CellTiter-Glo [13]: 3470 nM; EC50, CellTiter-Glo [16]: 1180 nM; EC50, CellTiter-Glo [7]: 6670 nM; EC50, CellTiter-Glo [14]: 2300 nM; EC50, CellTiter-Glo [9]: 3990 nM
O=C(CCCCCCC(=O)Nc1ccccc1)NO [Vorinostat] (10000 nM) | – | – | – | – | – | – | – | – | – | – | – | normalised response [17]: 44.2%; normalised response [18]: 24.4%; normalised response [19]: 14.1%; normalised response [20]: 15%; normalised response [21]: 3.2%; normalised response [22]: 34%; normalised response [23]: 43.3%; normalised response [24]: 47.7%; normalised response [25]: 17.3%; normalised response [26]: 27.8%; normalised response [27]: 64.3%; normalised response [28]: 29.6%; normalised response [29]: 8.35%; normalised response [30]: 46.1%; normalised response [31]: 22%; normalised response [32]: 52.2%; normalised response [33]: 31.5%; normalised response [34]: 43.6%; normalised viability [35]: 59.7% and 50.3%; normalised viability [36]: 13.3% and 16%
